Experiments:
[1] = Cytotoxicity against Balb/C mouse macrophages assessed as cell viability after 24 hrs by MTT assay; assay type: cell-based; conditions: Macrophage
[2] = Cytotoxicity against Balb/C mouse macrophages assessed as cell mortality at 0.01 to 5 ug/ml after 24 hrs by MTT assay

Compound | LC50 [1] | mortality at 24 h [2]
C[C@]12CC[C@H](OC(=O)c3ccc([N+](=O)[O-])cc3)CC1=CC[C@@H]1[C@@H]2CC[C@]2(C)NC(=O)CC[C@@H]12 | 27.8 µM | –
C[C@]12CC[C@H](OC(=O)COc3ccccc3)CC1=CC[C@@H]1[C@@H]2CC[C@]2(C)NC(=O)CC[C@@H]12 | 11.7 µM | –
C[C@]12CC[C@H](OC(=O)c3ccc(O)cc3)CC1=CC[C@@H]1[C@@H]2CC[C@]2(C)NC(=O)CC[C@@H]12 | 75 µM | 20%
COc1ccc(C(=O)O[C@H]2CC[C@@]3(C)C(=CC[C@@H]4[C@@H]3CC[C@]3(C)NC(=O)CC[C@@H]43)C2)cc1 | 8.4 µM | –
C[C@]12CC[C@H](OC(=O)c3ccc(Cl)cc3)CC1=CC[C@@H]1[C@@H]2CC[C@]2(C)NC(=O)CC[C@@H]12 | 100 µM | –
Cc1ccc(C(=O)O[C@H]2CC[C@@]3(C)C(=CC[C@@H]4[C@@H]3CC[C@]3(C)NC(=O)CC[C@@H]43)C2)cc1 | 22.8 µM | –
C[C@]12CC[C@H](OC(=O)CCl)CC1=CC[C@@H]1[C@@H]2CC[C@]2(C)NC(=O)CC[C@@H]12 | 94.1 µM | –
C[C@]12CC[C@H](OC(=O)c3ccccc3)CC1=CC[C@@H]1[C@@H]2CC[C@]2(C)NC(=O)CC[C@@H]12 | 43.6 µM | –
C[C@]12CC[C@H](OC(=O)c3ccc(N)cc3)CC1=CC[C@@H]1[C@@H]2CC[C@]2(C)NC(=O)CC[C@@H]12 | 25.1 µM | –
CC(C)(C)NC(=O)[C@H]1CC[C@H]2[C@@H]3CC[C@H]4NC(=O)C=C[C@]4(C)[C@H]3CC[C@]12C [FINASTERIDE] | 28.2 µM | –

Source: ChEMBL document CHEMBL1165859, “Synthesis, antiproliferative, acute toxicity and assessment of antiandrogenic activities of some newly synthesized steroidal lactams” (Eur J Med Chem, 2010)
